We go through twelve compounds from ChEMBL document CHEMBL3217628, “Benzisothiazolones arrest the cell cycle at the G2/M phase and induce apoptosis in HeLa cells” (Medchemcomm, 2013).

pIC50: −log10 of the molar value. The source made the active and inactive calls. The calls are words filed in the database; no cut-off is given here.

The nature of series [1]: Solubility of the compound in DMSO. The series is classed as physicochemical.
Series [2] deals with HeLa. Kind of series: Induction of apoptosis in human HeLa cells assessed as disruption of mitochondrial membrane potential at […] after 72 hrs using JC1 dye by fluorescence microscope analysis. The series is classed as functional, cell-based.
Series [3] has as its system HeLa. Kind of series: Induction of apoptosis in human HeLa cells assessed as cleaved caspase-3 level at […] after 48 hrs by Western blot analysis. The series is classed as functional, cell-based. (Immunoblotting shows a protein as a band on a membrane.)
The next series relates to SiHa. The series can be described thus: Cytotoxicity against human SiHa cells after 72 hrs by MTT assay. Format: functional, cell-based. A general note: Formazan colour is commonly taken as a measure of viable cells.
For another series, the system named is SW480. The series can be described thus: Cytotoxicity against human SW480 cells after 72 hrs by MTT assay. The series is classed as functional, cell-based. The settings on record: SW480, 72 h.
For series [4], the system named is HeLa. The series can be described thus: Cytotoxicity against human HeLa cells after 72 hrs by MTT assay. The series is classed as functional, cell-based.
Series [5] deals with HeLa. Kind of series: Induction of apoptosis in human HeLa cells assessed as disruption of mitochondrial membrane potential at 50 uM after 72 hrs using JC1 dye by fluorescence microscope analysis. Format: functional, cell-based.
Series [6] concerns HeLa. The series can be described thus: Cell cycle arrest in human HeLa cells assessed as accumulation at G2/M phase at 50 uM after 48 hrs using propidium iodide staining by flow cytometry (reference value: 14.3%). Format: functional. (In general: A flow cytometer gives signals particle by particle.)
Series [7] relates to HeLa. The series can be described thus: Induction of apoptosis in human HeLa cells assessed as formation of DNA fragmentation at 50 uM after 72 hrs using ethidium bromide staining by 2% agarose gel electrophoresis assay. Format: functional, cell-based.
Series [8] has as its system HeLa. Kind of series: Cell cycle arrest in human HeLa cells assessed as apoptotic cells at 50 uM after 48 hrs using propidium iodide staining by flow cytometry (reference value: 7.3%). Format: functional.

For `O=c1c2ccccc2sn1-c1ccccc1[N+](=O)[O-]`, the solubility entry in [1] is given as “soluble”.
Turning to `CC(=O)O[C@H]1C(=O)[C@@]2(C)[C@H]([C@H](OC(=O)c3ccccc3)[C@]3(O)C[C@H](OC(=O)[C@H](O)[C@@H](NC(=O)c4ccccc4)c4ccccc4)C(C)=C1C3(C)C)[C@]1(OC(C)=O)CO[C@@H]1C[C@@H]2O`, the outcome in the series with HeLa [2] and in the series on HeLa [3] was Active.
On to `O=c1c2ccccc2sn1-c1ccccc1`, for which, in series [1], the solubility result is listed as “soluble”.
As a reminder, the pIC50 is the negative decadic logarithm of the IC50, by convention in mol/L. Lower therefore signals a large IC50. As for `C[C@H](c1ccccc1)n1sc2ccccc2c1=O`, the pIC50 in the series on SiHa was 4.49; with SW480, 4.37; with HeLa [4], 4.36.
As to `O=c1c2ccccc2sn1C1CCCCC1`, the result with HeLa [5] and in the series with HeLa [7] was Active. Also, the pIC50 in the series with SiHa was 4.32; in the series with SW480, 4.31; with HeLa [4] it was 4.61. Also, the Activity in the series with HeLa [6] worked out at 26.6%; with HeLa [8] it was 23.4%.
For the compound `Cc1ccc(-n2sc3ccccc3c2=O)cc1`, the solubility entry in series [1] is “soluble”.
Still for that read-out and setting: for `COc1ccc(-n2sc3ccccc3c2=O)cc1` the value was “soluble”.
On to `CC(C)Cn1sc2ccccc2c1=O`, for which the negative logarithm of the IC50 (pIC50) was 4.42 in the series on SiHa, 4.32 in the series with SW480 and 4.50 with HeLa [4].
In the case of `COc1ccccc1-n1sc2ccccc2c1=O`, in series [1], the solubility result was “soluble”.
In the case of `C[C@@H](c1ccccc1)n1sc2ccccc2c1=O`, the pIC50 with SiHa was 4.44; in the series with SW480, 4.38; in the series with HeLa [4], 4.51.
In the case of `O=c1c2ccccc2sn1Cc1ccc2c(c1)OCO2`, the results for the pIC50 with SiHa, with SW480 and with HeLa [4] were 4.53, 4.33 and 4.43, respectively.
As for `O=C(c1ccccc1)c1cc(Cl)ccc1-n1sc2ccccc2c1=O`, the solubility result in series [1] is recorded as “soluble”.
